{"source": "paper PMC10215804", "about": "“Exploring Alternative Pathways to Target Bacterial Type II Topoisomerases Using NBTI Antibacterials: Beyond Halogen-Bonding Interactions” (Antibiotics, 2023)", "origin": "cited, not measured here", "key": {"E. coli (ATCC 25922)": {"system": "E. coli (ATCC 25922)", "conditions": "cited from earlier work"}, "E. coli ESBL QA-11.3": {"system": "E. coli ESBL QA-11.3", "parameters": "method as in PMID 35970069", "conditions": "cited from earlier work"}, "S. aureus topoIV": {"target": "T1, S. aureus topoIV (Staphylococcus aureus, UniProt P0C1U9)", "T1 construct": "purchased Inspiralis (Norwich, UK)", "T1 sequence (P0C1U9 whole entry)": "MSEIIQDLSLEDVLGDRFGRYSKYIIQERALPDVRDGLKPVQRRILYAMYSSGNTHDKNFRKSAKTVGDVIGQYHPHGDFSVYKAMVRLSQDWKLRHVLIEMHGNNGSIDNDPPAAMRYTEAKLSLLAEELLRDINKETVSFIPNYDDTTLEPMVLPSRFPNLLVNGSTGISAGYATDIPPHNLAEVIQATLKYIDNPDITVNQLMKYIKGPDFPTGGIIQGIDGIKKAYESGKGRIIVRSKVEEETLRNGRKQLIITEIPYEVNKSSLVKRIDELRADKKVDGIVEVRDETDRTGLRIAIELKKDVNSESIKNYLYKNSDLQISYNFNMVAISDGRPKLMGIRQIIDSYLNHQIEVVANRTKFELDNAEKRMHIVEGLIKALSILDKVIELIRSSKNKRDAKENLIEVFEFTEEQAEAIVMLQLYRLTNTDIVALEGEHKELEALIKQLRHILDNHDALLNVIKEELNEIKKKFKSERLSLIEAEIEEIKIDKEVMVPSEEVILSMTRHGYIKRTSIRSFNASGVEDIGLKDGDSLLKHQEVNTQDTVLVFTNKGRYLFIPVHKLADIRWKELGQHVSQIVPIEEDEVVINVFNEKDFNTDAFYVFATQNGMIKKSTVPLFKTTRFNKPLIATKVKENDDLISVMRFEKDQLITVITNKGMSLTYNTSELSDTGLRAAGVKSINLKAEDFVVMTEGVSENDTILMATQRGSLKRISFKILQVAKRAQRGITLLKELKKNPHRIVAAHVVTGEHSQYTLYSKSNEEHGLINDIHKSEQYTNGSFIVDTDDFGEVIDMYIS", "T1 sequence (P0C1S7 whole entry partner)": "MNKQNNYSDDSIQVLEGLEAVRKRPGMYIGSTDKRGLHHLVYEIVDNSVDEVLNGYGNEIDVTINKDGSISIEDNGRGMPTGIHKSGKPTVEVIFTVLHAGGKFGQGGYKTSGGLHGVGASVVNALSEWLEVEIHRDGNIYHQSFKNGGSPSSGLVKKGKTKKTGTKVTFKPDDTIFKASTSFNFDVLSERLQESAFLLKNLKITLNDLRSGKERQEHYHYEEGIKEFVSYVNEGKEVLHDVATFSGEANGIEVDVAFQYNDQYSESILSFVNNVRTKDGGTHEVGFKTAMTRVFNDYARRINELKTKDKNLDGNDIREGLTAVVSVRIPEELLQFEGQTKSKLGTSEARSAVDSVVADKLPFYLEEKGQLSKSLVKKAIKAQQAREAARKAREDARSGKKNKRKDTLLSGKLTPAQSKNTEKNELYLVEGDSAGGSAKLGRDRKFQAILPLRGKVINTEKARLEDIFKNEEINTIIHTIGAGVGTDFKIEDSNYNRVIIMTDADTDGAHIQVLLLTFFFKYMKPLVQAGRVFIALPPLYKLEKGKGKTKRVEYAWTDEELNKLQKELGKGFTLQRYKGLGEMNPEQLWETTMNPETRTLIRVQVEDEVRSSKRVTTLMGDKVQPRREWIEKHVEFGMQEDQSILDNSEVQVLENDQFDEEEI", "conditions": "relaxation inhibition; cited from earlier work"}, "E. faecalis RDK 057": {"system": "E. faecalis RDK 057", "conditions": "cited from earlier work"}, "MRSA (QA-11.2)": {"system": "MRSA (QA-11.2)", "parameters": "method as in PMID 35970069", "conditions": "cited from earlier work"}, "A. baumannii": {"system": "A. baumannii", "parameters": "method as in PMID 35970069", "conditions": "cited from earlier work"}, "MRSA (QA-11.7)": {"system": "MRSA (QA-11.7)", "conditions": "cited from earlier work"}, "E. coli N43 (CGSC# 5583)": {"system": "E. coli N43 (CGSC# 5583)", "conditions": "AcrA knockout; cited from earlier work"}, "human topoisomerase IIα": {"target": "T2, human topoisomerase IIα (Homo sapiens, UniProt P11388)", "T2 construct": "purchased Inspiralis (Norwich, UK)", "conditions": "residual activity at 100 µM compound; cited from earlier work"}, "MRSA(QA-12.1)": {"system": "MRSA(QA-12.1)", "parameters": "method as in PMID 35970069", "conditions": "cited from earlier work"}, "E. coli topoIV": {"target": "T3, E. coli topoIV (Escherichia coli, UniProt P0AFI2)", "T3 construct": "purchased Inspiralis (Norwich, UK)", "conditions": "relaxation inhibition; cited from earlier work"}, "K. pneumoniae": {"system": "K. pneumoniae", "parameters": "method as in PMID 35970069", "conditions": "cited from earlier work"}, "E. coli DNA gyrase": {"target": "T4, E. coli DNA gyrase (Escherichia coli, UniProt P0AES4)", "T4 construct": "purchased Inspiralis (Norwich, UK)", "T4 sequence (P0AES4 whole entry)": "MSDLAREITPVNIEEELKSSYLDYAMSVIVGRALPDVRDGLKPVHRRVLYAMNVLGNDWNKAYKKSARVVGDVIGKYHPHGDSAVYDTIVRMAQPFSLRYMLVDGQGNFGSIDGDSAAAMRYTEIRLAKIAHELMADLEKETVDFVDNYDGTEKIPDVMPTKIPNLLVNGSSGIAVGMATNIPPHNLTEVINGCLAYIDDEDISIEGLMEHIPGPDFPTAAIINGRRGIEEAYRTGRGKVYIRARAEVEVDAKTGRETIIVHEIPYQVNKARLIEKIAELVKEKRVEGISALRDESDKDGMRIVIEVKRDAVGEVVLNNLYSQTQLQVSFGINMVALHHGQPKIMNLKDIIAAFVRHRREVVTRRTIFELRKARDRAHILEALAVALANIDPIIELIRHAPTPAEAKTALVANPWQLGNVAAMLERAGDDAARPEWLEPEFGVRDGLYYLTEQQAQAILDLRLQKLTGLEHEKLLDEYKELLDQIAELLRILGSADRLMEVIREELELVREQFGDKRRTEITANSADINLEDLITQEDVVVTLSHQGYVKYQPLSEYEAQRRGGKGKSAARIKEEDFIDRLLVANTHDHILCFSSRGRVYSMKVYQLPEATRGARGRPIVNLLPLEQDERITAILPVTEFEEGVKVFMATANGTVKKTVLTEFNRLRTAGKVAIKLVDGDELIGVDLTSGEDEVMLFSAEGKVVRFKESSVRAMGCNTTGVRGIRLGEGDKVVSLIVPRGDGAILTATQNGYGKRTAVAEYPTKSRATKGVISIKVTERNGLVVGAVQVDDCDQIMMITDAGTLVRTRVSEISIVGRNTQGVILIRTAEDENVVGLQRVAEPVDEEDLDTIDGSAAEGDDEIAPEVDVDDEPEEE", "conditions": "supercoiling inhibition; cited from earlier work"}, "S. aureus DNA gyrase": {"target": "T5, S. aureus DNA gyrase (Staphylococcus aureus, UniProt P20831)", "T5 construct": "purchased Inspiralis (Norwich, UK)", "T5 sequence (P20831 whole entry)": "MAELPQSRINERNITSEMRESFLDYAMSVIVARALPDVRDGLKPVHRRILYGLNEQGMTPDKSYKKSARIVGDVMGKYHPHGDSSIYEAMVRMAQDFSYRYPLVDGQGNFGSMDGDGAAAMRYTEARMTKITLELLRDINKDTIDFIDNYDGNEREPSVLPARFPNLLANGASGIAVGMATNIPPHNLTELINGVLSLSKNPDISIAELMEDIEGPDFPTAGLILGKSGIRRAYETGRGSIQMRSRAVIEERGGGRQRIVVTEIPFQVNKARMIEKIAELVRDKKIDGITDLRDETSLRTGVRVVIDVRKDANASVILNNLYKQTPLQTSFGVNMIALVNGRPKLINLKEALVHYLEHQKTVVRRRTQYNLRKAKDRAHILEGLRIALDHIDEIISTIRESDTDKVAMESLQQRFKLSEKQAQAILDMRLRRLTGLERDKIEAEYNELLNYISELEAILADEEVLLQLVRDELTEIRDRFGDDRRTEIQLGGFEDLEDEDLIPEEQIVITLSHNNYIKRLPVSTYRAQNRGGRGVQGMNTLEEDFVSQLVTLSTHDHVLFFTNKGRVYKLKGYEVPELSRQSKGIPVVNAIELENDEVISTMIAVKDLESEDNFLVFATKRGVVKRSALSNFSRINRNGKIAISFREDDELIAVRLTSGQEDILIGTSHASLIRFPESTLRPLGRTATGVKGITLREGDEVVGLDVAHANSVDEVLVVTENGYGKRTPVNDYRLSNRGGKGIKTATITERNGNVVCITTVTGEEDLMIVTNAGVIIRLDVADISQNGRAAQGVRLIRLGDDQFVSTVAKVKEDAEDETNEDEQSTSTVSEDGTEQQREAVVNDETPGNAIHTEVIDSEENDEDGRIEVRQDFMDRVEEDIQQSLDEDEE", "T5 sequence (P0A0K8 whole entry partner)": "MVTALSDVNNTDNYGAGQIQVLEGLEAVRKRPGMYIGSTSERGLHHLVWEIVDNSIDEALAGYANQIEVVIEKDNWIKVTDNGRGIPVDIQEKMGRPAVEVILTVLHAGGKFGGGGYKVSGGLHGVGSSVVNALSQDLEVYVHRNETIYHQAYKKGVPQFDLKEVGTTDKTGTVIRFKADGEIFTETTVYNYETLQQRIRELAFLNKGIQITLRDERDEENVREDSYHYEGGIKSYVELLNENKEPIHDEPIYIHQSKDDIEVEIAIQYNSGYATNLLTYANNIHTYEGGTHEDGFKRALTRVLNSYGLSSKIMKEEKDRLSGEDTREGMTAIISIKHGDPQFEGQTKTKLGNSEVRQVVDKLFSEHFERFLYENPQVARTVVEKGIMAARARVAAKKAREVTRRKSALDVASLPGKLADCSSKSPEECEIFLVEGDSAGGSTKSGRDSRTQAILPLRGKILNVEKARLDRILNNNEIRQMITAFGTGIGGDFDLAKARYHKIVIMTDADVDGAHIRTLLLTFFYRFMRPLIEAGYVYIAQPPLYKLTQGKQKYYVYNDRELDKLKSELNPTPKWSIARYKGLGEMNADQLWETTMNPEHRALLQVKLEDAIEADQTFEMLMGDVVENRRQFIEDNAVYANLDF", "conditions": "supercoiling inhibition; cited from earlier work"}, "P. aeruginosa RDK 184": {"system": "P. aeruginosa RDK 184", "conditions": "cited from earlier work"}, "E. coli D22": {"system": "E. coli D22", "conditions": "lpxC mutation; cited from earlier work"}, "S. aureus (ATCC 29213)": {"system": "S. aureus (ATCC 29213)", "conditions": "cited from earlier work"}, "VRE": {"system": "VRE", "conditions": "cited from earlier work"}}}
{"smiles": "COc1ccc2nccc(OCC3CCC(NCc4ccc(Br)cc4)CC3)c2n1", "note": "(stereo not drawn) [Compound 2]", "values": [{"measurement": "MIC E. coli (ATCC 25922)", "setting": "E. coli (ATCC 25922)", "result": 64, "unit": "µg/mL"}, {"measurement": "MIC E. coli ESBL QA-11.3", "setting": "E. coli ESBL QA-11.3", "result": 128, "unit": "µg/mL"}, {"measurement": "IC50", "setting": "S. aureus topoIV", "result": "> 100000", "unit": "nM"}, {"measurement": "MIC E. faecalis RDK 057", "setting": "E. faecalis RDK 057", "result": 1, "unit": "µg/mL"}, {"measurement": "MIC MRSA (QA-11.2)", "setting": "MRSA (QA-11.2)", "result": 0.5, "unit": "µg/mL"}, {"measurement": "MIC A. baumannii", "setting": "A. baumannii", "result": 128, "unit": "µg/mL"}, {"measurement": "MIC MRSA (QA-11.7)", "setting": "MRSA (QA-11.7)", "result": 0.25, "unit": "µg/mL"}, {"measurement": "MIC E. coli N43 (CGSC# 5583)", "setting": "E. coli N43 (CGSC# 5583)", "result": 1, "unit": "µg/mL"}, {"measurement": "Human TopoIIα (% RA at 100 µM)", "setting": "human topoisomerase IIα", "result": "106 ± 3", "unit": "%"}, {"measurement": "MIC MRSA(QA-12.1)", "setting": "MRSA(QA-12.1)", "result": 0.25, "unit": "µg/mL"}, {"measurement": "IC50", "setting": "E. coli topoIV", "result": "495 ± 184", "unit": "nM"}, {"measurement": "MIC K. pneumoniae", "setting": "K. pneumoniae", "result": 128, "unit": "µg/mL"}, {"measurement": "IC50", "setting": "E. coli DNA gyrase", "result": "4800 ± 774", "unit": "nM"}, {"measurement": "IC50", "setting": "S. aureus DNA gyrase", "result": "372 ± 2", "unit": "nM"}, {"measurement": "MIC P. aeruginosa RDK 184", "setting": "P. aeruginosa RDK 184", "result": 32, "unit": "µg/mL"}, {"measurement": "MIC E. coli D22", "setting": "E. coli D22", "result": 8, "unit": "µg/mL"}, {"measurement": "MIC S. aureus (ATCC 29213)", "setting": "S. aureus (ATCC 29213)", "result": 0.125, "unit": "µg/mL"}, {"measurement": "MIC VRE", "setting": "VRE", "result": 1, "unit": "µg/mL"}]}
